Results as given in ChEMBL document CHEMBL3727343, “Agent for inhibiting odor of pyrazine derivatives” (2013).
The source made the active and inactive calls. The calls are words filed in the database; no cut-off is given here.

Experiments:
[1] = molecular target: T1, Olfactory receptor 5K1 (Homo sapiens) (UniProt Q8NHB7); experiment: Antagonist activity at human OR5K1 expressed in HEK293 cells assessed as inhibition of 2,6-dimethylpyrazine-induced response at 100 uM by luciferase reporter gene assay; type: functional, cell-based
T1 sequence (whole entry): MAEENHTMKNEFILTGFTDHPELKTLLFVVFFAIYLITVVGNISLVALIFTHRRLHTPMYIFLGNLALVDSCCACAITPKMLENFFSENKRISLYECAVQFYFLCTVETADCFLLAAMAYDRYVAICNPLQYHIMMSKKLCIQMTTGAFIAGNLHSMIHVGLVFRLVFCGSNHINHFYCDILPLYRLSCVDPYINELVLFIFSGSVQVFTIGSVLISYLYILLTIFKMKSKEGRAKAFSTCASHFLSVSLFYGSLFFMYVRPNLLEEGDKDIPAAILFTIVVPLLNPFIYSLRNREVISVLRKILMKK

Homo sapiens = organism: Homo sapiens; experiment: Inhibition of 2,6-dimethylpyrazine-induced odor assessed as strength of odor on cloth smelled by subjects; type: functional, organism-based

## C=CCc1ccc(O)c(OC)c1
[1]
  inhibition: > 40%

## CC(C=O)Cc1ccc(C(C)C)cc1 (configuration not stated)
[1]
  inhibition: > 75%

## CC(=O)c1ccc2ccccc2c1
[1]
  inhibition: > 50%
Homo sapiens
  inhibition: Active

## CC(C=O)Cc1ccc2c(c1)OCO2 (configuration not stated)
[1]
  inhibition: > 40%
Homo sapiens
  inhibition: Active

## Cc1ccc(C(C)C)c(O)c1
[1]
  inhibition: > 75%

## CC(=O)/C=C/C1=C(C)CCCC1(C)C
[1]
  inhibition: > 75%
Homo sapiens
  inhibition: Active

## CC(=O)C1=C(C)[C@@H]2C[C@@]3(C1)[C@H](C)CC[C@H]3C2(C)C
[1]
  inhibition: > 50%

## CC(=O)c1cc(C(C)(C)C)cc2c1CCC2(C)C
[1]
  inhibition: > 40%

## CCCCCC1=C(C)CCC1=O
[1]
  inhibition: > 40%

## CC1=CCC(C(C)CC2CCCC2=O)CC1 (configuration not stated)
[1]
  inhibition: > 50%

## CCCCCCOC(=O)c1ccccc1O
[1]
  inhibition: > 40%

## O=C/C=C/c1ccccc1
[1]
  inhibition: > 50%

## C[C@@H]1[C@@H]2C(=O)C[C@H]3[C@@H]2C(C)(C)CCC[C@]13C
[1]
  inhibition: > 75%

## O=C1CCCCCCCCCCCC(=O)OCCO1
[1]
  inhibition: > 40%

## CCCCC/C(C=O)=C\c1ccccc1
[1]
  inhibition: > 75%

## CC(C=O)C1CCCCC1 (configuration not stated)
[1]
  inhibition: > 50%

## CCC(O)COC1CCCCC1C(C)(C)C (configuration not stated)
[1]
  inhibition: > 75%
Homo sapiens
  inhibition: Active

## CC/C(=C\CC1CC=C(C)C1(C)C)CO (configuration not stated)
[1]
  inhibition: > 75%

## CC1(C)CCCC2(C)C1CCC1(C)OCCC12 (configuration not stated)
[1]
  inhibition: > 50%

## C/C=C/c1ccc(OCc2ccccc2)c(OC)c1
[1]
  inhibition: > 50%

## CC(=O)C1(C)CC2=C(CCCC2(C)C)CC1C (configuration not stated)
[1]
  inhibition: > 75%

## CC(=O)c1cc2c(cc1C)C(C)(C)C(C)CC2(C)C (configuration not stated)
[1]
  inhibition: > 75%

## CC12CCC(C3(CCCC3)C1=O)C2(C)C (configuration not stated)
[1]
  inhibition: > 50%

## CC(=O)c1c(C)c([N+](=O)[O-])c(C(C)(C)C)c([N+](=O)[O-])c1C
[1]
  inhibition: > 40%

## C/C=C/C(=O)C1=C(C)C=CCC1(C)C
[1]
  inhibition: > 40%
Homo sapiens
  inhibition: Active

## CC(C=O)c1ccccc1 (configuration not stated)
[1]
  inhibition: > 50%

## CC1=CCC(C/C=C(\C)CO)C1(C)C (configuration not stated)
[1]
  inhibition: > 50%
Homo sapiens
  inhibition: Active

## CC(C)=CCC/C(C)=C/CO
[1]
  inhibition: > 40%
Homo sapiens
  inhibition: Active

## O=C1CCCCCCCCCCCCCCO1
[1]
  inhibition: > 40%

## O=C(OCCc1ccccc1)c1ccccc1O
[1]
  inhibition: > 75%

## CC1=CC(C)C(C)C(C=O)C1 (configuration not stated)
[1]
  inhibition: > 40%

## C=CCCC(=O)C1=CCCC(C)(C)C1
[1]
  inhibition: > 40%
Homo sapiens
  inhibition: Active

## CCCCCC/C(C=O)=C\c1ccccc1
[1]
  inhibition: > 50%

## CC(=O)/C(C)=C/C1C(C)=CCCC1(C)C (configuration not stated)
[1]
  inhibition: > 50%
Homo sapiens
  inhibition: Active

## CO[C@]1(C)CC[C@H]2C(C)(C)[C@@H]3C[C@@]21CC[C@H]3C
[1]
  inhibition: > 50%

## CC1=CC(O)CC(C)C2CC(=C(C)C)CC12 (configuration not stated)
[1]
  inhibition: > 75%

## CC/C=C(\C)C(O)CCCCC (configuration not stated)
[1]
  inhibition: > 75%
Homo sapiens
  inhibition: Active

## CCOCOC1CCCCCCCCCCC1
[1]
  inhibition: > 50%

## C[C@@H]1CCCCCCCCCCCCC(=O)C1
[1]
  inhibition: > 50%

## CC1C/C=C/CCCCCCCCCC(=O)C1 (configuration not stated)
[1]
  inhibition: > 50%
Homo sapiens
  inhibition: Active

## CC(C)=CCCC(C)CC=O (configuration not stated)
[1]
  inhibition: > 50%

## CC(C)[C@H]1CC[C@@H](CO)CC1
[1]
  inhibition: > 40%

## CC(C)[C@@H]1CC[C@@H](C)C[C@H]1O
[1]
  inhibition: > 50%

## CC(C=O)Cc1ccc(C(C)(C)C)cc1 (configuration not stated)
[1]
  inhibition: > 50%
Homo sapiens
  inhibition: Active

## CC1=CC(C)C(C=O)CC1 (configuration not stated)
[1]
  inhibition: > 40%
Homo sapiens
  inhibition: Active

## CCCCCCCC1CCC(=O)O1 (configuration not stated)
[1]
  inhibition: > 50%
Homo sapiens
  inhibition: Active

## CC(=O)O[C@]1(C)CC[C@H]2C(C)(C)[C@@H]3C[C@@]21CC[C@H]3C
[1]
  inhibition: > 50%

## C=C(OCC)C1C(C)(C)CC(=O)CC1(C)C
[1]
  inhibition: > 50%

## CC(C)CCCC(C)CCO (configuration not stated)
[1]
  inhibition: > 50%

## CC(C)=CCC/C(C)=C/C=O
[1]
  inhibition: > 75%

## OCCCCCCc1ccccc1
[1]
  inhibition: > 40%

## CC(C)=CCCC(C)CCOCC=O (configuration not stated)
[1]
  inhibition: > 40%

## O=C1CCCCC/C=C\CCCCCCCCO1
[1]
  inhibition: > 50%
